# Key:
# [1] = molecular target: H1047R PIK3CA enzyme (Homo sapiens, UniProt P42336, H1047R); assay: ADP-Glo Biochemical PIK3CA Kinase Assay
# [2] = cells; details: Homo sapiens, MCF-10A, read-out: MCF10A I50
# H1047R PIK3CA enzyme, sequence (P42336 whole entry H1047R): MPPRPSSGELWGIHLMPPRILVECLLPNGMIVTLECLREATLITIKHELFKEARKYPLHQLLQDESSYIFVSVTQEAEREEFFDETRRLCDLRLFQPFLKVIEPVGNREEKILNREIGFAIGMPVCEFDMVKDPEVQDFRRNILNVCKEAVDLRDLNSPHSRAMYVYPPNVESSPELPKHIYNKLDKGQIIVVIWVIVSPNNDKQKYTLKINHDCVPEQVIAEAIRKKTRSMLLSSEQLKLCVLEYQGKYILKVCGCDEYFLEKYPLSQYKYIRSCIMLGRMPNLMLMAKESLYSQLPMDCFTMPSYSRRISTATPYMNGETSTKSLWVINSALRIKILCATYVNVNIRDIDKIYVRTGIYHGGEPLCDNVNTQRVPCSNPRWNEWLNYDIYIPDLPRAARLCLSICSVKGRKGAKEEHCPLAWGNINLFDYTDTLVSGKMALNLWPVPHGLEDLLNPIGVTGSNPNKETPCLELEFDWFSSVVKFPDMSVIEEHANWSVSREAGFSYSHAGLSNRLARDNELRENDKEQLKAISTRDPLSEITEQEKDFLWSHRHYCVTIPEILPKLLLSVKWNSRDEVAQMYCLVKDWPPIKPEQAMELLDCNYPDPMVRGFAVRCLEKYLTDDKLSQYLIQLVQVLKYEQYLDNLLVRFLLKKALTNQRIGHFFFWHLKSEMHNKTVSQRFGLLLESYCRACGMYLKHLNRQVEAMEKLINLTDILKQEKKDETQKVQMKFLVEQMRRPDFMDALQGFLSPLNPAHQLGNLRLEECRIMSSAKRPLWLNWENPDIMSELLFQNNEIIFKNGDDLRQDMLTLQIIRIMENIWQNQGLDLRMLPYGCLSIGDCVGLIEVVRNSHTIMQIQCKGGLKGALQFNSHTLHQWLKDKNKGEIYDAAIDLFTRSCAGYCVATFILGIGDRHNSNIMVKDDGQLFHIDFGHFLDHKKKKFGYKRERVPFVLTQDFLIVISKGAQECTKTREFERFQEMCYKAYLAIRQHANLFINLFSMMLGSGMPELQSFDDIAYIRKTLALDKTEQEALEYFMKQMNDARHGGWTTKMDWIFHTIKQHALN
# H1047R PIK3CA enzyme, sequence (P27986 whole entry partner): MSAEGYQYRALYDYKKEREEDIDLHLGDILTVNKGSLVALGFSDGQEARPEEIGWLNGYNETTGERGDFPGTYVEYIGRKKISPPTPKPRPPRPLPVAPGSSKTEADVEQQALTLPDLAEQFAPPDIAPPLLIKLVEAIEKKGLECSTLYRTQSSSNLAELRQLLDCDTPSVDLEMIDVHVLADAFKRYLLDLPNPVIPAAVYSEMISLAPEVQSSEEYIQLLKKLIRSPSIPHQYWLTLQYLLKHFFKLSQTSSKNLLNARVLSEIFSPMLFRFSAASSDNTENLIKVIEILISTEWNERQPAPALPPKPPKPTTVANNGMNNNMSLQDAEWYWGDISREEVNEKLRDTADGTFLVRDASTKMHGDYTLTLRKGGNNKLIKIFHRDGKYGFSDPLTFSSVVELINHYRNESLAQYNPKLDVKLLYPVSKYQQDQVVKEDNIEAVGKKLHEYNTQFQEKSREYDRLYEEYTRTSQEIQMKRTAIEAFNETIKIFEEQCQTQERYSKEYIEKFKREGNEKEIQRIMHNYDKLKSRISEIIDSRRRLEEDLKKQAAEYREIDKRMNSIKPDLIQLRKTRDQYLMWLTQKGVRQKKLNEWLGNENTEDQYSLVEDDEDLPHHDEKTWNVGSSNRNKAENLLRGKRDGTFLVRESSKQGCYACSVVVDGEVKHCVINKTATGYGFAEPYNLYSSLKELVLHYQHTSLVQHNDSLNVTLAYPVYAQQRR
SMILES,IC50 [1] [µM],IC50 [2] [µM]
CNC(=O)c1cnc(Nc2ccccc2C)c(NC(=O)c2csc3ccc(Cl)cc23)c1 [I-149],0.1 to 0.5,10 to 36
CNC(=O)c1cnc(Nc2ccccc2C)c(NC(=O)c2csc3ccc(F)cc23)c1 [I-150],0.1 to 0.5,5 to 10
Cc1ccccc1Nc1ncc(C(=O)NCc2ccn(C)n2)cc1NC(=O)c1cc(F)cc(C(F)(F)F)c1 [I-178],0.1 to 0.5,1 to 5
O=C(NC1CS(=O)(=O)C1)c1cnc(N2CCCc3ccccc32)c(NC(=O)c2csc3ccccc23)c1 [I-180],0.1 to 0.5,10 to 36
O=C(NCc1nccs1)c1cnc(N2CCCc3ccccc32)c(NC(=O)c2csc3ccccc23)c1 [I-181],0.1 to 0.5,10 to 36
COCCNC(=O)c1cnc(Nc2ccccc2C)c(NC(=O)c2csc3ccccc23)c1 [I-190],0.1 to 0.5,10 to 36
Cc1ccccc1Nc1ncc(C(=O)NCc2ccc(Cl)cc2)cc1NC(=O)c1csc2ccccc12 [I-191],0.1 to 0.5,1 to 5
Cc1ccccc1Nc1ncc(C(=O)NC2COC2)cc1NC(=O)c1csc2ccccc12 [I-192],0.1 to 0.5,36 to 100
Cc1ccccc1Nc1ncc(C(=O)NCc2cccnc2)cc1NC(=O)c1csc2ccccc12 [I-193],0.1 to 0.5,5 to 10
Cc1ccccc1Nc1ncc(C(=O)NCC2CCCO2)cc1NC(=O)c1csc2ccccc12 (stereo not drawn) [I-195],0.1 to 0.5,10 to 36
Cc1ccccc1Nc1ncc(C(=O)NCC(F)(F)F)cc1NC(=O)c1csc2ccccc12 [I-196],0.1 to 0.5,5 to 10
Cc1ccccc1Nc1ncc(C(=O)NC(C)c2ccccc2)cc1NC(=O)c1csc2ccccc12 (stereo not drawn) [I-197],≤ 0.1,10 to 36
Cc1ccccc1Nc1ncc(C(=O)NCC2CCOCC2)cc1NC(=O)c1csc2ccccc12 [I-198],0.1 to 0.5,10 to 36
COc1cncc(CNC(=O)c2cnc(Nc3ccccc3C)c(NC(=O)c3csc4ccccc34)c2)c1 [I-199],0.1 to 0.5,10 to 36
O=C(Nc1cc(C(=O)NC2CS(=O)(=O)C2)cnc1N1CCCc2ccccc21)c1cc(F)cc(C(F)(F)F)c1 [I-208],0.5 to 1,5 to 10
O=C(NCc1nccs1)c1cnc(N2CCCc3ccccc32)c(NC(=O)c2cc(F)cc(C(F)(F)F)c2)c1 [I-209],0.5 to 1,10 to 36
Cn1nccc1CNC(=O)c1cnc(N2CCCc3ccccc32)c(NC(=O)c2cc(F)cc(C(F)(F)F)c2)c1 [I-210],1 to 10,36 to 100
Cc1ccccc1Nc1ncc(C(=O)NCC2CC(F)(F)C2)cc1NC(=O)c1cc(F)cc(C(F)(F)F)c1 [I-211],0.1 to 0.5,1 to 5
Cc1ccccc1Nc1ncc(C(=O)NC2CC(F)(F)C2)cc1NC(=O)c1cc(F)cc(C(F)(F)F)c1 [I-212],0.1 to 0.5,1 to 5

SMILES,IC50 [1] [µM],IC50 [2] [µM]
CNC(=O)c1cnc(N2C(=O)NCc3ccccc32)c(NC(=O)c2csc3ccccc23)c1 [I-215],1 to 10,36 to 100
Cc1ccccc1Nc1ncc(C(=O)NCCS(C)(=O)=O)cc1NC(=O)c1cc(F)cc(C(F)(F)F)c1 [I-219],0.1 to 0.5,1 to 5
Cc1cc(NC(=O)c2cnc(Nc3ccccc3C)c(NC(=O)c3cc(F)cc(C(F)(F)F)c3)c2)n[nH]1 [I-232],0.1 to 0.5,1 to 5
Cc1ccccc1Nc1ncc(C(=O)Nc2ccncc2)cc1NC(=O)c1cc(F)cc(C(F)(F)F)c1 [I-234],0.1 to 0.5,< 1
Cc1ccccc1Nc1ncc(C(=O)Nc2cccnc2)cc1NC(=O)c1cc(F)cc(C(F)(F)F)c1 [I-239],0.1 to 0.5,1 to 5
Cc1ccccc1Nc1ncc(C(=O)Nc2ccnnc2)cc1NC(=O)c1cc(F)cc(C(F)(F)F)c1 [I-240],0.1 to 0.5,< 1
O=C(NC1CS(=O)(=O)C1)c1cnc(N2CCOc3ccccc32)c(NC(=O)c2csc3ccccc23)c1 [I-245],0.1 to 0.5,5 to 10
Cc1ccccc1Nc1ncc(C(=O)NC2CCCS(=O)(=O)C2)cc1NC(=O)c1cc(F)cc(C(F)(F)F)c1 (stereo not drawn) [I-246],0.1 to 0.5,< 1
Cc1ccccc1Nc1ncc(C(=O)NC2CCS(=O)(=O)C2)cc1NC(=O)c1cc(F)cc(C(F)(F)F)c1 (stereo not drawn) [I-247],0.1 to 0.5,< 1
Cc1ccccc1Nc1ncc(C(=O)NC2CC(F)(F)C2)cc1NC(=O)c1csc2ccccc12 [I-248],0.1 to 0.5,1 to 5
CNC(=O)c1cnc(Nc2cccc(F)c2Cl)c(NC(=O)c2cc(F)cc(C(F)(F)F)c2)c1 [I-249],0.1 to 0.5,1 to 5
O=C(NC1(c2cccnc2)CC1)c1cnc(N2CCOc3ccccc32)c(NC(=O)c2csc3ccccc23)c1 [I-256],0.1 to 0.5,1 to 5
Cc1ccccc1Nc1ncc(C(=O)NC2CC3(COC3)C2)cc1NC(=O)c1cc(F)cc(C(F)(F)F)c1 [I-267],0.1 to 0.5,< 1
Cc1ccccc1Nc1ncc(C(=O)NC2CC(O)C2)cc1NC(=O)c1cc(F)cc(C(F)(F)F)c1 (stereo not drawn) [I-274],0.1 to 0.5,1 to 5
Cc1ccccc1Nc1ncc(C(=O)NC2CCC(O)C2)cc1NC(=O)c1cc(F)cc(C(F)(F)F)c1 (stereo not drawn) [I-275],0.1 to 0.5,1 to 5
Cc1ccccc1Nc1ncc(C(=O)NC2CCC(O)CC2)cc1NC(=O)c1cc(F)cc(C(F)(F)F)c1 (stereo not drawn) [I-276],0.1 to 0.5,1 to 5
Cc1ccccc1Nc1cc(=O)n(Cc2ccccc2C#N)cc1NC(=O)c1csc2ccccc12 [I-279],0.1 to 0.5,10 to 36
CNC(=O)c1cnc(Nc2ccc(F)cc2)c(NC(=O)c2cc(F)cc(C(F)(F)F)c2)c1 [I-285],0.5 to 1,10 to 36
CNC(=O)c1cnc(Nc2cccc(N)c2)c(NC(=O)c2cc(F)cc(C(F)(F)F)c2)c1 [I-286],1 to 10,10 to 36

SMILES,IC50 [1] [µM],IC50 [2] [µM]
CNC(=O)c1cnc(Nc2cccc(Cl)c2)c(NC(=O)c2cc(F)cc(C(F)(F)F)c2)c1 [I-287],1 to 10,36 to 100
CCOc1ccccc1Nc1ncc(C(=O)NC)cc1NC(=O)c1cc(F)cc(C(F)(F)F)c1 [I-288],10 to 100,36 to 100
CNC(=O)c1cnc(Nc2cn(C)nc2C)c(NC(=O)c2cc(F)cc(C(F)(F)F)c2)c1 [I-289],10 to 100,36 to 100
CNC(=O)c1cnc(Nc2cccc(Cl)c2C)c(NC(=O)c2cc(F)cc(C(F)(F)F)c2)c1 [I-290],1 to 10,36 to 100
CNC(=O)c1cnc(Nc2ncco2)c(NC(=O)c2cc(F)cc(C(F)(F)F)c2)c1 [I-291],10 to 100,36 to 100
CNC(=O)c1cnc(Nc2cccc(C(F)(F)F)c2)c(NC(=O)c2cc(F)cc(C(F)(F)F)c2)c1 [I-292],1 to 10,10 to 36
CNC(=O)c1cnc(Nc2ccccc2Cl)c(NC(=O)c2cc(F)cc(C(F)(F)F)c2)c1 [I-293],0.1 to 0.5,1 to 5
CNC(=O)c1cnc(Nc2cccc(C)c2Cl)c(NC(=O)c2cc(F)cc(C(F)(F)F)c2)c1 [I-294],1 to 10,36 to 100
CNC(=O)c1cnc(Nc2ccc(C#N)cc2)c(NC(=O)c2cc(F)cc(C(F)(F)F)c2)c1 [I-295],1 to 10,36 to 100
CNC(=O)c1cnc(Nc2cccc(F)c2F)c(NC(=O)c2cc(F)cc(C(F)(F)F)c2)c1 [I-296],0.1 to 0.5,5 to 10
CNC(=O)c1cnc(Nc2cccc(C(C)(C)C)c2)c(NC(=O)c2cc(F)cc(C(F)(F)F)c2)c1 [I-297],1 to 10,36 to 100
CNC(=O)c1cnc(Nc2ccccc2C(C)C)c(NC(=O)c2cc(F)cc(C(F)(F)F)c2)c1 [I-298],1 to 10,36 to 100
CNC(=O)c1cnc(Nc2nccs2)c(NC(=O)c2cc(F)cc(C(F)(F)F)c2)c1 [I-299],10 to 100,36 to 100
CNC(=O)c1cnc(Nc2ccccc2F)c(NC(=O)c2cc(F)cc(C(F)(F)F)c2)c1 [I-300],1 to 10,36 to 100
CNC(=O)c1cnc(Nc2nc(C)c(C)s2)c(NC(=O)c2cc(F)cc(C(F)(F)F)c2)c1 [I-301],0.5 to 1,10 to 36
CNC(=O)c1cnc(Nc2cccc(F)c2C)c(NC(=O)c2cc(F)cc(C(F)(F)F)c2)c1 [I-302],0.5 to 1,5 to 10
CNC(=O)c1cnc(Nc2cccc(F)c2OC)c(NC(=O)c2cc(F)cc(C(F)(F)F)c2)c1 [I-303],1 to 10,36 to 100
CNC(=O)c1cnc(Nc2nc(C)cs2)c(NC(=O)c2cc(F)cc(C(F)(F)F)c2)c1 [I-304],1 to 10,36 to 100
CNC(=O)c1cnc(Nc2nn(C)cc2Br)c(NC(=O)c2cc(F)cc(C(F)(F)F)c2)c1 [I-305],10 to 100,36 to 100

# Source: patent US20250090540A1, “PI3K-ALPHA INHIBITORS AND METHODS OF USE THEREOF” (Relay Therapeutics, Inc., priority 2021, published 2025)
